These results are taken from article PMC2918394 (Journal of medicinal chemistry, 2010).

A value given as a limit tells only on which side of the number the result lay.

For one experiment, the system named is SARS-CoV. In kind it is cell-based. The following applies: SARS-CoV infected Vero E6 cells.
A further experiment has as its target SARS-CoV PLpro (Severe acute respiratory syndrome coronavirus, UniProt P0C6X7). It counts as biochemical.

On to `COc1ccc(CNC(=O)C2CCN(Cc3cccc4ccccc34)CC2)cc1` [Compound 3], for which the “antiviral activity (in words)” value with SARS-CoV is given as “does not show any antiviral activity”.
Consider `COc1ccccc1CNC(=O)C1CCN([C@H](C)c2cccc3ccccc23)CC1` [Compound 15a, 1-[(R)-1-(1-Naphthyl)ethyl]-4-(2-methoxybenzylamino)carbonylpiperidine], for which the “reduction in potency over 15b and 15c” value at SARS-CoV PLpro worked out at 3 fold.
On to `COc1ccc(CNC(=O)C2CCN([C@H](C)c3cccc4ccccc34)CC2)cc1` [Compound 15c, 1-[(R)-1-(1-Naphthyl)ethyl]-4-(4-methoxybenzylamino)carbonylpiperidine], for which the “potency enhancement over 3” value on SARS-CoV PLpro is on record as greater than 170 fold.
With `CC(C)(c1cccc2ccccc12)N1CCC(C(=O)NCc2ccc3c(c2)OCO3)CC1` [Compound 15k, 1-[1-Methyl-1-(1-naphthyl)ethyl]-4-[3,4-(methylenedioxy)benzylamino]carbonylpiperidine], the “PLpro inhibitory activity (in words)” value on SARS-CoV PLpro was “inactive”.
Take `COc1cccc(CNC(=O)C2CCN([C@@H](C)c3ccc4ccccc4c3)CC2)c1` [Compound 15f, 1-[(S)-1-(2-Naphthyl)ethyl]-4-(3-methoxybenzylamino)carbonylpiperidine]: the “more potent than the 2(R)-derivative 15d” value on SARS-CoV PLpro worked out at 2 fold. Also, the “antiviral activity (in words)” value in the experiment on SARS-CoV is “no antiviral activity”.
As for `COc1ccccc1CNC(=O)C1CCN(Cc2cccc3ccccc23)CC1` [Compound 7a, 1-[(1-Naphthyl)methyl]-4-[(2-methoxybenzylamino)carbonyl]piperidine], the “PLpro inhibitory activity (in words)” value at SARS-CoV PLpro is recorded as “very poor inhibitory activity”.
Take “1-[1-(2-Naphthyl)ethyl]-4-(4-methoxybenzylamino)carbonylpiperazine [Compound 20]”: the “PLpro inhibitory activity (in words)” value on SARS-CoV PLpro is recorded as “no activity against PLpro”.
